# Data as given in patent publication US20240358692A1, “TREATMENT OF SCLERODERMA” (Aisa Pharma, Inc., priority 2023, published 2024).
# Tested on: participants with SSc-RP
# Assay: SHAQ - Visual Analog Scale - Pain
# Format: in vivo, human
# Conditions: for % change in Pain: SHAQ, mITT Part A
# Excerpt: The standard, validated, patient reported outcome measures tool for SSc patients, the Scleroderma Health Assessment Questionnaire (SHAQ), will be used to assess the participant qualify of life. Details are attached in the Appendix. The participant quality of life will be scored, and a disability index calculated for each questionnaire completed by the patient at Screening and each in-clinic visit. The absolute change in participant quality of life from baseline to the end of each dosing period will be calculated similar to frequency data as before.
# The standard, validated, patient reported outcome measures tool for SSc patients, the SHAQ, was collected at the time points specified in the study schedules (FIG. 2 and FIGS. 4A and 4B) to assess the participant's quality of life. The SHAQ included a Raynaud's VAS that will also be reported separately.
# Pain on the SHAQ outcome measure on the first line in table F is a composite of all pain experienced in patients with SSc, comprising joint pain, back pain, headache, odynophagia, skin ulcer related discomfort, Raynaud's, and neuropathic pain. Aisa Pharma believes, based on the biologic attributes and actions of cilnidipine that differ from most dihydropyridine calcium channel antagonists that cilnidipine might have direct analgesic effects in certain pain conditions and in fact has been designated to receive evaluation through the […] Preclinical Pain Screening Platform Program to investigate the drug in multiple in vitro and in vivo preclinical models of pain that are validated and predictive of effects in man.
# [1] = Any Cilnidipine (N = 17), Day 12, PP Population, Part A
# [2] = Cilnidipine 10 mg, SSc patients, PP, Part A
# [3] = Cilnidipine 20 mg, SSc patients, PP, Part A
# [4] = Modified ITT Population-Part A, Day 12, dose cilnidipine 10 mg, tadalafil 5 mg, alone or combined as labelled
# [5] = Modified ITT Population-Part A, Day 12, dose cilnidipine 20 mg, tadalafil 5 mg, alone or combined as labelled
# [6] = Pooled Cilnidipine (N = 8), Day 12, PP Population, Part A
# [7] = pooled Cilnidipine 10 mg and Cilnidipine 10 mg + Tadalafil 5 mg
# [8] = pooled Cilnidipine 20 mg and Cilnidipine 20 mg + Tadalafil 5 mg
# [9] = pooled cilnidipine 10 mg and 20 mg arms (combination: + tadalafil 5 mg)
smiles,measurement,setting,value
COCCOC(=O)C1=C(C)NC(C)=C(C(=O)OC/C=C/c2ccccc2)C1c1cccc([N+](=O)[O-])c1 (stereo not shown) [Cilnidipine],"SHAQ Visual Analogue Scale - Pain, Change from Baseline, Mean (SD)",[1],−0.575 (1.0318)
same,"SHAQ Visual Analogue Scale - Pain, Change from Baseline, Median",[1],−0.600
same,"SHAQ Visual Analogue Scale - Pain, In-Clinic Visit (Day 12), Mean (SD)",[1],2.476 (1.7312)
same,"SHAQ Visual Analogue Scale - Pain, In-Clinic Visit (Day 12), Median",[1],2.200
same,"SHAQ Visual Analogue Scale - Pain, Percent Change from Baseline, Mean (SD)",[1],−22.77 (31.937) %
same,"SHAQ Visual Analogue Scale - Pain, Percent Change from Baseline, Median",[1],−22.58%
same,"SHAQ VAS Pain, Change from Baseline, Max",[2],0.30
same,"SHAQ VAS Pain, Change from Baseline, Mean",[2],−0.100
same,"SHAQ VAS Pain, Change from Baseline, Median",[2],0.000
same,"SHAQ VAS Pain, Change from Baseline, Min",[2],"−0.70,"
same,"SHAQ VAS Pain, Change from Baseline, Q1",[2],"−0.350,"
same,"SHAQ VAS Pain, Change from Baseline, Q3",[2],0.150
same,"SHAQ VAS Pain, Day 12, Max",[2],3.60
same,"SHAQ VAS Pain, Day 12, Mean",[2],1.875
same,"SHAQ VAS Pain, Day 12, Median",[2],1.950
same,"SHAQ VAS Pain, Day 12, Min",[2],"0.00,"
same,"SHAQ VAS Pain, Day 12, Q1",[2],"0.500,"
same,"SHAQ VAS Pain, Day 12, Q3",[2],3.250
same,"SHAQ VAS Pain, Percent Change from Baseline, Max",[2],11.5
same,"SHAQ VAS Pain, Percent Change from Baseline, Mean",[2],−9.88
same,"SHAQ VAS Pain, Percent Change from Baseline, Median",[2],0.00
same,"SHAQ VAS Pain, Percent Change from Baseline, Min",[2],"−41.2,"
same,"SHAQ VAS Pain, Percent Change from Baseline, Q1",[2],"−41.18,"
same,"SHAQ VAS Pain, Percent Change from Baseline, Q3",[2],11.54
same,% change in Pain,Cilnidipine 20 mg (n = 3),−53%
same,"SHAQ VAS Pain, Change from Baseline, Max",[3],0.70
same,"SHAQ VAS Pain, Change from Baseline, Mean",[3],−0.650
same,"SHAQ VAS Pain, Change from Baseline, Min",[3],"−2.00,"
same,"SHAQ VAS Pain, Change from Baseline, Q1",[3],"−1.400,"
same,"SHAQ VAS Pain, Change from Baseline, Q3",[3],0.100
same,"SHAQ VAS Pain, Day 12, Max",[3],4.30
same,"SHAQ VAS Pain, Day 12, Mean",[3],1.875
same,"SHAQ VAS Pain, Day 12, Median",[3],1.400
same,"SHAQ VAS Pain, Day 12, Min",[3],"0.40,"
same,"SHAQ VAS Pain, Day 12, Q1",[3],"0.550,"
same,"SHAQ VAS Pain, Day 12, Q3",[3],3.200
same,"SHAQ VAS Pain, Percent Change from Baseline, Mean",[3],−34.56
same,"SHAQ VAS Pain, Percent Change from Baseline, Min",[3],"−55.6,"
same,"SHAQ VAS Pain, Percent Change from Baseline, Q1",[3],"−54.44,"
same,"SHAQ VAS Pain, Percent Change from Baseline, Q3",[3],−14.67
same,"Visual Analog Scale-Pain, Change from Baseline, Mean",[4],−0.100
same,"Visual Analog Scale-Pain, Change from Baseline, Median",[4],0.000
same,"Visual Analog Scale-Pain, Percent Change from Baseline, Median",[4],0.00%
same,"Visual Analog Scale-Pain, Change from Baseline, Mean",[5],−1.100
same,"Visual Analog Scale-Pain, Change from Baseline, Median",[5],−0.800
same,"Visual Analog Scale-Pain, In Clinic Visit (Day 12), Median","Modified ITT Population-Part A, dose cilnidipine 20 mg, tadalafil 5 mg, alone or combined as labelled",0.700
same,"SHAQ Visual Analogue Scale - Pain, In-Clinic Visit (Day 12), Median","Pooled Cilnidipine 10 mg and Cilnidipine 10 mg + Tadalafil 5 mg (N = 9), Day 12, PP Population, Part A",2.900
same,"SHAQ Visual Analogue Scale - Pain, In-Clinic Visit (Day 12), Median","Pooled Cilnidipine 20 mg and Cilnidipine 20 mg + Tadalafil 5 mg (N = 8), Day 12, PP Population, Part A",2.100
same,"SHAQ Visual Analogue Scale - Pain, Change from Baseline, Mean (SD)",[6],−0.375 (0.8311)
same,"SHAQ Visual Analogue Scale - Pain, In-Clinic Visit (Day 12), Mean (SD)",[6],1.875 (1.5944)
same,"SHAQ Visual Analogue Scale - Pain, Percent Change from Baseline, Mean (SD)",[6],−23.98 (32.893) %
same,% change in Pain,Pooled Cilnidipine (n = 7),−31%
same,"% Δ from baseline, VAS Pain median",Pooled cilnidipine (n=6),−45%
same,SHAQ VAS-Pain (change),cilnidipine 20 mg,−1.1
same,VAS Pain Change from Baseline Max,[7],0.60
same,VAS Pain Change from Baseline Mean,[7],−0.633
same,VAS Pain Change from Baseline Median,[7],−0.700
same,VAS Pain Change from Baseline Min,[7],"−2.80,"
same,VAS Pain Change from Baseline Q1,[7],"−1.100,"
same,VAS Pain Change from Baseline Q3,[7],0.000
same,VAS Pain Day 12 Max,[7],5.50
same,VAS Pain Day 12 Median,[7],2.900
same,VAS Pain Day 12 Min,[7],"0.00,"
same,VAS Pain Day 12 Q1,[7],"1.000,"
same,VAS Pain Day 12 Q3,[7],3.800
same,VAS Pain Percent Change from Baseline Max,[7],18.8%
same,VAS Pain Percent Change from Baseline Mean,[7],−20.07%
same,VAS Pain Percent Change from Baseline Median,[7],−21.87%
same,VAS Pain Percent Change from Baseline Min,[7],"−72.2, %"
same,VAS Pain Percent Change from Baseline Q1,[7],"−37.46, %"
same,VAS Pain Percent Change from Baseline Q3,[7],5.77%
same,VAS Pain Change from Baseline Max,[8],0.90
same,VAS Pain Change from Baseline Mean,[8],−0.700
same,VAS Pain Change from Baseline Median,[8],−0.650
same,VAS Pain Change from Baseline Min,[8],"−2.00,"
same,VAS Pain Change from Baseline Q1,[8],"−1.700,"
same,VAS Pain Change from Baseline Q3,[8],−0.100
same,VAS Pain Day 12 Max,[8],5.30
same,VAS Pain Day 12 Mean,[8],2.000
same,VAS Pain Day 12 Median,[8],2.100
same,VAS Pain Day 12 Min,[8],"0.40,"
same,VAS Pain Day 12 Q1,[8],"0.700,"
same,VAS Pain Day 12 Q3,[8],2.200
same,VAS Pain Percent Change from Baseline Max,[8],20.5%
same,VAS Pain Percent Change from Baseline Median,[8],−51.06%
same,VAS Pain Percent Change from Baseline Min,[8],"−58.6, %"
same,VAS Pain Percent Change from Baseline Q1,[8],"−55.56, %"
same,VAS Pain Percent Change from Baseline Q3,[8],−4.55%
same,VAS Pain Change from Baseline Max,[9],0.30
same,VAS Pain Change from Baseline Median,[9],−0.500
same,VAS Pain Change from Baseline Min,[9],"−2.00,"
same,VAS Pain Change from Baseline Q1,[9],"−0.800,"
same,VAS Pain Change from Baseline Q3,[9],0.000
same,VAS Pain Day 12 Max,[9],3.60
same,VAS Pain Day 12 Median,[9],1.000
same,VAS Pain Day 12 Min,[9],"0.00,"
same,VAS Pain Day 12 Q1,[9],"0.400,"
same,VAS Pain Day 12 Q3,[9],2.900
same,VAS Pain Percent Change from Baseline Max,[9],11.5%
same,VAS Pain Percent Change from Baseline Min,[9],"−55.6, %"
